Experimental findings from patent US9440982B2 (Eolas Therapeutics, Inc., priority 2012, dated 2016) are described below.

The target of series [1] is T1, OX1 (Homo sapiens, UniProt O43613).
T1 construct: expressed in transfected cells; host or cells: CHO (CHO-OX1, kept under selection antibiotic)
T1 sequence (O43613 1-425): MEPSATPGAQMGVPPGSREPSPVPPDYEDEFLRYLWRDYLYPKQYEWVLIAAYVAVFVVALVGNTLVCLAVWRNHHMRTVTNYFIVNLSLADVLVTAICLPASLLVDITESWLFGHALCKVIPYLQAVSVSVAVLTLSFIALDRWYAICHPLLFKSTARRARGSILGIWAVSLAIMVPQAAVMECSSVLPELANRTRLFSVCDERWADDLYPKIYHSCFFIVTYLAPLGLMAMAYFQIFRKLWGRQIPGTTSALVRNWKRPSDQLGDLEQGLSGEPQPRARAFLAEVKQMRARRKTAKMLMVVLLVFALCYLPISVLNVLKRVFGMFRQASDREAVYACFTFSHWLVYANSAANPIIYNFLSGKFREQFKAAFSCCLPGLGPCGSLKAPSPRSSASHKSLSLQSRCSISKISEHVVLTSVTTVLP
As to the kind of experiment: Orexin receptor cell-based functional assay, [Ca2+]i by FLIPR, CHO-OX1 cells. To be noted: CHO-OX1 cells, [Ca2+]i by FLIPR, antagonist dose-range 0.1 nM-10 μM, EC90 of OXA; read-out: OX1. A digest of the protocol: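 CHO cells expressing human OX1 or OX2 loaded with calcium dye plus 2.5 mM probenecid at 37° C (calcium4, 30 min, or calcium6, 2 h), then exposed to compounds (0.1 nM-10 μM) for 30 min. Intracellular Ca2+ measured on FLIPR; antagonist format.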

In series [2] the target is T2, CYP3A4 (Homo sapiens, UniProt P08684).
T2 construct: pre-incubated with human liver microsomes and NADPH; from tissue; host or cells: human liver microsomes
T2 sequence (P08684 whole entry): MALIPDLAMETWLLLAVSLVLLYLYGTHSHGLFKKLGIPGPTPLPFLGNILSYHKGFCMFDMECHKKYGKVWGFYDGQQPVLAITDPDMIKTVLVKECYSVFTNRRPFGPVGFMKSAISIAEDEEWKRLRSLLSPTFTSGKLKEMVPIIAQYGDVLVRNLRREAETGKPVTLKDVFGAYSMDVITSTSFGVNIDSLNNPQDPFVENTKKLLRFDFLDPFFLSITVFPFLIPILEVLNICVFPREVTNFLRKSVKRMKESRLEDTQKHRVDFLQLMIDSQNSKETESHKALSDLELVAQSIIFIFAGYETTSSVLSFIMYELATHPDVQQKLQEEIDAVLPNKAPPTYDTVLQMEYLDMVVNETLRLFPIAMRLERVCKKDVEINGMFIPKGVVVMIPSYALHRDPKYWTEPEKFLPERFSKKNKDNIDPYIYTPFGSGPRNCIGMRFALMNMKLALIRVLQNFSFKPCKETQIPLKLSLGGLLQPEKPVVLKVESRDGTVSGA
The experiment in a line: Cytochrome P450 inhibition assay (midazolam hydroxylation). The format is in vitro ADME. To be noted: human, human liver microsomes, probe midazolam (hydroxylation to 1′-hydroxymidazolam), 10 μM test compound, midazolam at approximately its Km. A digest of the protocol: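 Human liver microsomes; CYP3A4 activity as midazolam 1′-hydroxylation with substrate near Km, with or without 10 μM test compound, read as percent inhibition. For time-dependent inhibition, parallel samples were preincubated 30 min with NADPH before substrate, and percent inhibition compared with non-preincubated samples.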

In general, inhibition refers to how much of the control response was suppressed. A higher inhibition goes with a strong effect. With `Cc1ccc(-n2nccn2)c(C(=O)N2CCC[C@@H](C)[C@H]2CNc2ncc3cc(C)ccc3n2)c1` [Example A220, ((2S,3R)-3-Methyl-2-(((6-methylquinazolin-2-yl)amino)methyl)piperidin-1-yl)(5-methyl-2-(2H-1,2,3-triazol-2-yl)phenyl)methanone], the IC50 in series [1] worked out at 11 nM. In series [2], the inhibition at 10 µM turned out to be 68%.

For `C[C@@H]1CCCN(C(=O)c2cc(F)ccc2-n2nccn2)[C@@H]1CNc1ncc(Cl)cn1` [Example A221, ((2S,3R)-2-(((5-Chloropyrimidin-2-yl)amino)methyl)-3-methylpiperidin-1-yl)(5-fluoro-2-(2H-1,2,3-triazol-2-yl)phenyl)methanone], the IC50 in series [1] came to 32 nM. The compound further came in with an inhibition at 10 µM in series [2] of 53%.

As to `Cc1ccc(-c2cccnc2)c(C(=O)N2CCC[C@@H](C)[C@H]2CNc2ncc(C(F)(F)F)cn2)n1` [Example A223, ((2S,3R)-3-Methyl-2-(((5-(trifluoromethyl)pyrimidin-2-yl)amino)methyl)piperidin-1-yl)(6-methyl-[3,3′-bipyridin]-2-yl)methanone], the IC50 in series [1] turned out to be 37 nM. 10 µM produced 93% inhibition in series [2].

As to `C[C@@H]1CCCN(C(=O)c2cc(F)ccc2-c2ncccn2)[C@@H]1CNc1ncc(C(F)(F)F)cn1` [Example A227, (5-Fluoro-2-(pyrimidin-2-yl)phenyl)((2S,3R)-3-methyl-2-(((5-(trifluoromethyl)pyrimidin-2-yl)amino)methyl)piperidin-1-yl)methanone], in series [1], the IC50 is 2 nM. Besides, at 10 µM the inhibition in series [2] was 59%.

With `C[C@@H]1CCCN(C(=O)c2cc(F)ccc2-c2ncccn2)[C@@H]1CNc1ccc(C(F)(F)F)cn1` [Example A228, (5-Fluoro-2-(pyrimidin-2-yl)phenyl)((2S,3R)-3-methyl-2-(((5-(trifluoromethyl)pyridin-2-yl)amino)methyl)piperidin-1-yl)methanone], the IC50 in series [1] worked out at 1 nM. In series [2], this compound showed an inhibition at 10 µM of 72%.

For `C[C@@H]1CCCN(C(=O)c2cc(F)ccc2-c2ncccn2)[C@@H]1CNc1ccc(Cl)cn1` [Example A229, ((2S,3R)-2-(((5-Chloropyridin-2-yl)amino)methyl)-3-methylpiperidin-1-yl)(5-fluoro-2-(pyrimidin-2-yl)phenyl)methanone], the IC50 in series [1] turned out to be 4 nM. This compound also displayed an inhibition at 10 µM in series [2] of 72%.

With `C[C@@H]1CCCN(C(=O)c2cccc(F)c2-c2ncccn2)[C@@H]1CNc1ncc(Cl)cn1` [Example A231, (3-Fluoro-2-(pyrimidin-2-yl)phenyl)((2S,3R)-3-methyl-2-(((5-chloropyrimidin-2-yl)amino)methyl)piperidin-1-yl)methanone], the IC50 in series [1] came to 17 nM. This compound also had an inhibition at 10 µM in series [2] of 54%.

`C[C@@H]1CCCN(C(=O)c2cccc(F)c2-c2ncccn2)[C@@H]1CNc1ccc(C(F)(F)F)cn1` [Example A233, (3-Fluoro-2-(pyrimidin-2-yl)phenyl)((2S,3R)-3-methyl-2-(((5-(trifluoromethyl)pyridin-2-yl)amino)methyl)piperidin-1-yl)methanone]: the IC50 in series [1] came out at 5 nM. In series [2], this compound had an inhibition at 10 µM of 72%.

In the case of `C[C@@H]1CCCN(C(=O)c2c(F)cccc2-c2ncccn2)[C@@H]1CNc1ncc(Cl)cn1` [Example A239, ((2S,3R)-2-(((5-Chloropyrimidin-2-yl)amino)methyl)-3-methylpiperidin-1-yl)(2-fluoro-6-(pyrimidin-2-yl)phenyl)methanone], the IC50 in series [1] turned out to be 83 nM. Besides, the inhibition at 10 µM in series [2] amounted to 50%.

`C[C@@H]1CCCN(C(=O)c2cc(F)c(F)cc2-c2ncccn2)[C@@H]1CNc1ncc(C(F)(F)F)cn1` [Example A243, (4,5-Difluoro-2-(pyrimidin-2-yl)phenyl)((2S,3R)-3-methyl-2-(((5-(trifluoromethyl)pyrimidin-2-yl)amino)methyl)piperidin-1-yl)methanone]: in series [1], the IC50 was determined as 75 nM. In addition, the inhibition at 10 µM in series [2] turned out to be 68%.

For the compound `C[C@@H]1CCCN(C(=O)c2cc(F)c(F)cc2-c2ncccn2)[C@@H]1CNc1ncc(Cl)cn1` [Example A244, ((2S,3R)-2-(((5-Chloropyrimidin-2-yl)amino)methyl)-3-methylpiperidin-1-yl) (4,5-difluoro-2-(pyrimidin-2-yl)phenyl)methanone], the IC50 in series [1] stood at 1300 nM. Also, the inhibition at 10 µM in series [2] is 70%.

`C[C@@H]1CCCN(C(=O)c2cc(F)c(F)cc2-n2nccn2)[C@@H]1CNc1ncc(Cl)cn1` [Example A247, ((2S,3R)-2-(((5-Chloropyrimidin-2-yl)amino)methyl)-3-methylpiperidin-1-yl)(4,5-difluoro-2-(2H-1,2,3-triazol-2-yl)phenyl)methanone]: the IC50 in series [1] is above 100 nM. Also, the inhibition at 10 µM in series [2] amounted to 65%.

As for `C[C@@H]1CCCN(C(=O)c2cc(F)c(F)cc2-n2nccn2)[C@@H]1CNc1ncc(C(F)(F)F)cn1` [Example A248, (4,5-Difluoro-2-(2H-1,2,3-triazol-2-yl)phenyl)((2S,3R)-3-methyl-2-(((5-(trifluoromethyl)pyrimidin-2-yl)amino)methyl)piperidin-1-yl)methanone], in series [1], the IC50 was 20 nM. In series [2], this compound returned an inhibition at 10 µM of 67%.

Take `C[C@@H]1CCCN(C(=O)c2cc(F)c(F)cc2-n2nccn2)[C@@H]1CNc1ccc(C(F)(F)F)cn1` [Example A249, (4,5-Difluoro-2-(2H-1,2,3-triazol-2-yl)phenyl)((2S,3R)-3-methyl-2-(((5-(trifluoromethyl)pyridin-2-yl)amino)methyl)piperidin-1-yl)methanone]: the IC50 in series [1] turned out to be 18 nM. This compound also showed an inhibition at 10 µM in series [2] of 83%.

With `C[C@@H]1CCCN(C(=O)c2cccc(F)c2-n2nccn2)[C@@H]1CNc1ccc(Cl)cn1` [Example A254, ((2S,3R)-2-(((5-Chloropyridin-2-yl)amino)methyl)-3-methylpiperidin-1-yl)(3-fluoro-2-(2H-1,2,3-triazol-2-yl)phenyl)methanone], the IC50 in series [1] worked out at 37 nM. This compound also displayed an inhibition at 10 µM in series [2] of 63%.

For `C[C@@H]1CCCN(C(=O)c2cccc(F)c2-n2nccn2)[C@@H]1CNc1ncc(Cl)cn1` [Example A255, ((2S,3R)-2-(((5-Chloropyrimidin-2-yl)amino)methyl)-3-methylpiperidin-1-yl)(3-fluoro-2-(2H-1,2,3-triazol-2-yl)phenyl)methanone], in series [1], the IC50 is 41 nM. Further, 10 µM produced 41% inhibition in series [2].

In the case of `C[C@@H]1CCCN(C(=O)c2cccc(F)c2-n2nccn2)[C@@H]1CNc1ccc(C(F)(F)F)cn1` [Example A257, (3-Fluoro-2-(2H-1,2,3-triazol-2-yl)phenyl)((2S,3R)-3-methyl-2-(((5-(trifluoromethyl)pyridin-2-yl)amino)methyl)piperidin-1-yl)methanone], the IC50 in series [1] stood at 4 nM. In addition, in series [2], the inhibition at 10 µM stood at 69%.

For the compound `C[C@@H]1CCCN(C(=O)c2c(F)cccc2-n2nccn2)[C@@H]1CNc1ccc(C(F)(F)F)cn1` [Example A258, (2-Fluoro-6-(2H-1,2,3-triazol-2-yl)phenyl)((2S,3R)-3-methyl-2-(((5-(trifluoromethyl)pyridin-2-yl)amino)methyl)piperidin-1-yl)methanone], the IC50 in series [1] is 4 nM. The compound also returned an inhibition at 10 µM in series [2] of 69%.

Regarding `C[C@@H]1CCCN(C(=O)c2c(F)cccc2-n2nccn2)[C@@H]1CNc1ncc(C(F)(F)F)cn1` [Example A259, (2-Fluoro-6-(2H-1,2,3-triazol-2-yl)phenyl)((2S,3R)-3-methyl-2-(((5-(trifluoromethyl)pyrimidin-2-yl)amino)methyl)piperidin-1-yl)methanone], the IC50 in series [1] was found to be 9 nM. Further, in series [2], the inhibition at 10 µM was found to be 37%.

As to `C[C@@H]1CCCN(C(=O)c2c(F)cccc2-n2nccn2)[C@@H]1CNc1ncc(Cl)cn1` [Example A260, ((2S,3R)-2-(((5-Chloropyrimidin-2-yl)amino)methyl)-3-methylpiperidin-1-yl)(2-fluoro-6-(2H-1,2,3-triazol-2-yl)phenyl)methanone], the IC50 in series [1] amounted to 85 nM. 10 µM produced 53% inhibition in series [2].

On to `C[C@@H]1CCCN(C(=O)c2c(F)cccc2-n2nccn2)[C@@H]1CNc1ccc(Cl)cn1` [Example A261, ((2S,3R)-2-(((5-Chloropyridin-2-yl)amino)methyl)-3-methylpiperidin-1-yl)(2-fluoro-6-(2H-1,2,3-triazol-2-yl)phenyl)methanone], for which the IC50 in series [1] came out at 5 nM. The inhibition at 10 µM in series [2] turned out to be 77%.

On to `Cc1cccc(C(=O)N2CCC[C@@H](C)[C@H]2CNc2ccc(C(F)(F)F)cn2)c1-c1ncccn1` [Example A298, ((2S,3R)-3-Methyl-2-(((5-(trifluoromethyl)pyridin-2-yl)amino)methyl)piperidin-1-yl)(3-methyl-2-(pyrimidin-2-yl)phenyl)methanone], for which the IC50 in series [1] is 5 nM. At 10 µM the inhibition in series [2] was 75%.
